Measurements published in paper PMC6572376, “N1-Propargylguanosine Modified mRNA Cap Analogs: Synthesis, Reactivity, and Applications to the Study of Cap-Binding Proteins” (Molecules, 2019).

Target: T1, hDcpS (Homo sapiens, UniProt Q96C86)
T1 construct: made in house
T1 sequence (Q96C86 1-337): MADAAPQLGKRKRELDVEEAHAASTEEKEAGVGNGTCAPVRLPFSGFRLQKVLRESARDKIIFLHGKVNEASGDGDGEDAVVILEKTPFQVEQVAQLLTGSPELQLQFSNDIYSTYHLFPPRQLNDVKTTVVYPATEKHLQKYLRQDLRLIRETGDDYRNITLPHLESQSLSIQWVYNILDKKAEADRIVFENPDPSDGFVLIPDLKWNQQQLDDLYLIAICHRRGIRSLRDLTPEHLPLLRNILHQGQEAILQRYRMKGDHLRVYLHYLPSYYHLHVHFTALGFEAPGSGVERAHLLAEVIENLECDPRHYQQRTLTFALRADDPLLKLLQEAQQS
Assay: hDcpS cleavage of fluorescent probes monitored by emission spectroscopy
Type: biochemical
Settings: 30 nM hDcpS; probe 30 µM / 100 nM (legend, methods)
Experimental: Fluorescently labeled cap analogs that serve as DcpS substrates can be considered as activity probes. We performed an enzymatic cleavage test with 30 nM hDcpS and 30 µM probe to evaluate whether fluorescently labeled derivatives of cap analog 1 (probes 6–9) can be used to monitor enzymatic activity via changes in fluorescence emission. […] For the Py-labeled probe 9, the fluorescence intensity at the emission maximum increased by 50% after complete DcpS cleavage (Figure 4c and Figure S3). Nevertheless, certain previously developed probes provided higher sensitivity than the one formulated here.
Human DcpS was expressed and purified as described previously. Enzyme was stored at −80 °C at 10 µM concentration (monomer). Enzyme hDcpS was preincubated at 30 °C for 15 min before usage. […] Reaction progress was monitored by recording emission spectra, upon excitation at the wavelength characteristic for a fluorophore studied, using Cary Eclipse (Agilent Technologies, Santa Clara, CA, USA) equipped with a xenon lamp in a quartz cuvette (10 mm × 4 mm).
Figure 4 The influence of complete cleavage by hDcpS (30 nM) on the fluorescence properties of probes 6–9 (100 nM). Emission spectra before (0 min) and after (60 min) decapping scavenger (DcpS) cleavage for compounds 6 (a) and 9 (b); (c) The ratios of fluorescence intensity after and before cleavage (I/I0) for all studied probes.

SMILES: C[n+]1cn([C@@H]2O[C@H](COP(=O)(O)OP(=O)([O-])OP(=O)(O)OC[C@H]3O[C@@H](n4cnc5c(=O)n(Cc6cn(CCOCCOCCNC(=O)Cc7ccc8ccc9cccc%10ccc7c8c9%10)nn6)c(N)nc54)[C@H](O)[C@@H]3O)[C@@H](O)[C@H]2O)c2nc(N)nc(O)c21 [Compound 9, m^7Gp3G-N1-Py]
- Increase of fluorescence intensity at the emission maximum after complete DcpS cleavage: 50%
